How the values were obtained:
[1] = Absorbance and fluorescence spectra of the dye in distilled water (spectrophotometer / fluorescence spectrophotometer); format: physicochemical; conditions: for maximum absorption wavelength / maximum fluorescence wavelength / maximum excitation wavelength: 0.001 mg/mL in distilled water; for maximum absorption wavelength: absorbance measured 200 to 750 nm; for maximum fluorescence wavelength: excited at maximum absorption wavelength; for maximum fluorescence wavelength / maximum excitation wavelength: fluorescence spectrophotometer; for fluorescence in solution state: stain prepared as a solution, red wavelength region
Procedure: Brilliant Green (manufactured by Sigma-Aldrich Company, B4014-25G) was adjusted with distilled water to a concentration of 0.001 mg/mL, and the light absorbance was continuously measured over a wavelength range from 200 to 750 nm using a spectrophotometer (manufactured by Shimadzu Corporation, BioSpec-1600) to determine the wavelength at which the absorption was the maximum. The maximum absorption wavelength of 625 nm thus obtained was irradiated as an excitation wavelength, and the wavelength of the scattered light detected in the perpendicular direction to the light axis of the excitation light was measured using a fluorescence spectrophotometer (manufactured by Shimadzu Corporation, RF-1500), thus to obtain a maximum fluorescence wavelength of 625 nm. The maximum excitation wavelength measured using this fluorescence spectrophotometer was 627 nm.
This implies that the compound is not undergoing the process of excitation by an irradiated light and emission of fluorescence.
As a comparison to Brilliant Green, the wavelength pattern of Rhodamine B, which stains the inner part of cells in the lumen of the large intestine or the like in the same manner as Brilliant Green does, was measured.

[2] = test system: large intestine; assay: Fluorescence observation of extracted large intestine stained with the dye, confocal microscope; set-up: species or system mouse
Procedure: Brilliant Green (manufactured by Sigma-Aldrich Company, B4014-25G) was prepared as a solution using distilled water, and the concentration was adjusted to 1.0 mg/mL.
A mouse (ddY, 13 weeks old, male) was subjected to laparotomy under anesthesia, and the large intestine was extracted. Immediately after extraction, the prepared solution of Brilliant Green was applied onto the large intestine, and fluorescence observation of the specimen by a confocal imaging system using a confocal microscope (manufactured by Leica Corp., TCPSP2) was performed. Here, the stainability, penetrability, and fluorescence properties of Brilliant Green were examined.
Observation was performed for the cross-sections at every 5 μm from the luminal surface layer of the flesh specimen of extracted large intestine, to the depth direction (FIG. 5).

[3] = molecular target: T1, Albumin (from Bovine Serum, Globulin Free) (Bos taurus, UniProt P02769); assay: Fluorescence spectrum of liquid mixture of Brilliant Green and albumin; format: physicochemical
T1 construct: Albumin (from Bovine Serum, Globulin Free); purchased Wako Pure Chemical Industries, Ltd. 013-15104; host or cells: bovine serum
Procedure: Brilliant Green (manufactured by Sigma-Aldrich Company, B4014-25G) was prepared as a solution at 0.1 mg/mL using distilled water. Albumin (from Bovine Serum, Globulin Free; Wako Pure Chemical Industries, Ltd., 013-15104) was prepared as a solution at 2.0 mg/mL using physiological saline. Using a 0.1 M phosphate buffer solution (pH 5) and the 2.0 mg/mL albumin solution prepared above, a liquid mixture of 0.01 mg/mL Brilliant Green and albumin was prepared. The maximum absorption wavelength of Brilliant Green of 625 nm was irradiated as the excitation wavelength, and the wavelength of the scattered light detected in the perpendicular direction to the light axis of the excitation light, was measured using a spectrophotometer (manufactured by Shimadzu Corporation, RF-1500). The maximum fluorescence wavelength was 651 nm.
As a comparison to the liquid mixture of Brilliant Green and albumin, the maximum fluorescence wavelength of an albumin solution was measured with respect to an excitation wavelength of 625 nm, which was shown in FIG. 4.

T1 sequence (P02769 25-607): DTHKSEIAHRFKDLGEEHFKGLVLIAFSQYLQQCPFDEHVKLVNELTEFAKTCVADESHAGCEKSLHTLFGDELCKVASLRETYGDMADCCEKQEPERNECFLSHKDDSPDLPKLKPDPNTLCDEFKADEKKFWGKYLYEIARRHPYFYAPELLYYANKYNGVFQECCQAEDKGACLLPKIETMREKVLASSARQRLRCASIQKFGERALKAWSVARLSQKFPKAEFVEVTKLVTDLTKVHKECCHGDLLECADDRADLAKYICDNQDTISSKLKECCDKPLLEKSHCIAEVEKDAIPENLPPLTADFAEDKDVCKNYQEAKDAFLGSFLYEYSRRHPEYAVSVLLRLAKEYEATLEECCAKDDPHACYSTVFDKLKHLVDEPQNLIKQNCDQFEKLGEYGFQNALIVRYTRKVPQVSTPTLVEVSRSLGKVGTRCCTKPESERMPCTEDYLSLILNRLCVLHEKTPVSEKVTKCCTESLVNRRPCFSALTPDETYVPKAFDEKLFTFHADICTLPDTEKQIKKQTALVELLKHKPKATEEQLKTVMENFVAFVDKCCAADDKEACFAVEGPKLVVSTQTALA

Compound | maximum absorption wavelength [1] | maximum fluorescence wavelength [1] | maximum excitation wavelength [1] | fluorescence in solution state [1] | depth to which observation could be sufficiently made from the luminal surface layer ([2]; 1.0 mg/mL solution applied onto extracted mouse large intestine, cross-sections every 5 μm) | stainability of the tissue (cross-sectional images) ([2]; 1.0 mg/mL, sites 10 μm and 15 μm deep from the surface layer) | maximum fluorescence wavelength ([3]; 0.01 mg/mL Brilliant Green with albumin, 0.1 M phosphate buffer pH 5, excitation 625 nm) | fluorescence when bound to albumin ([3]; light source in the red wavelength region)
CCN(Cc1cccc(S(=O)(=O)[O-])c1)c1ccc(C(=C2C=CC(=[N+](CC)Cc3cccc(S(=O)(=O)[O-])c3)C=C2)c2ccccc2S(=O)(=O)[O-])cc1.[Na+].[Na+] [Brilliant Blue FCF, reference compound] | 629 nm | 650 nm | 619 nm |  |  |  |  | 
CCN(CC)c1ccc(C(=C2C=CC(=[N+](CC)CC)C=C2)c2ccccc2)cc1.O=S(=O)([O-])O [Brilliant Green] | 625 nm | 625 nm | 627 nm | no fluorescence was detected | 35 μm | The cytoplasm is well stained, while the interstitial space is contrastively dark | 651 nm | emits fluorescence, when bound to albumin
CCN(CC)c1ccc2c(-c3ccccc3C(=O)O)c3ccc(=[N+](CC)CC)cc-3oc2c1.[Cl-] [Rhodamine B, reference compound] |  |  |  | exhibits intense fluorescence even in a solution state |  |  |  | 
